Key:
Type in all cases: in vivo
[1] = tested on: Calves (8) and Cows (7); assay: Awakening from detomidine-induced sedation, calves and cows; details: detomidine 0.04-0.06 mg/kg i.m., compound (I) i.v. after 30 min, same dose as detomidine
Protocol: (§1) Trials were carried out as follows: • (A) A dose of 0.04-0.06 mg/kg of detomidine was injected i.m. into the test animals. After exactly 30 min. compound (I) was given intravenously. The awakening of the animal or its recovery from the sedation was then observed. Calves (8) and Cows (7) recovered from detomidine-induced sedation in 2 to 5 minutes from the injection of compound (I). Horses (4) awoke in 5 to 10 min. The awakening effect of compound (I) was found stable for both species. […] For the calves and cows, the dose of compound (I) was the same as the dose of detomidine. For the horses, the dose of compound (I) was five times greater than that of detomidine. • (B) A dose of 2 mg/kg of xylazine was injected i.m. into 10 dogs. This injection induced sedation which lasted for 0.5 - 1 hr. During this time the dogs were able to walk only with difficulty.

[2] = tested on: rats; assay: Inhibition of the sedative effect of 4-(2,6-dimethylbenzyl)imidazole in rats (spontaneous locomotor activity, activity meter); details: compound (I) 1-3 mg/kg i.v. or i.p., 15 minutes after 4-(2,6-dimethylbenzyl)imidazole
Protocol: (§2) (C) The following tests concerning the sedative effect of 4-(2,6-dimethylbenzyl)imidazole and the inhibition of this effect with compound (I) were carried out in rats.
In other tests, compound (I) was given i.v. or i.p. to rats at a dose of 1-3 mg/kg, 15 minutes after the administration of 4-(2,6-dimethylbenzyl)imidazole. The recovery of the animals from the sedation was observed by measuring their spontaneous locomotor activity with an activity meter.

[3] = tested on: dogs; assay: Awakening from xylazine-induced sedation in dogs; details: compound (I) 0.1 - 0.3 mg/kg i.v. 20 min. after 2 mg/kg of xylazine
Protocol: In other experiments compound (I) was given at a dose of 0.1 - 0.3 mg/kg i.v. 20 min. after the injection of 2 mg/kg of xylazine. The awakening of the dogs and their recovery from the sedation was observed. The dogs recovered from the xylazine-induced sedation in 2 - 3 minutes after the administration of compound (I).

[4] = tested on: Horses (4); assay: Awakening from detomidine-induced sedation, horses; details: detomidine 0.04-0.06 mg/kg i.m., compound (I) i.v. after 30 min, dose five times greater than that of detomidine
Protocol: as §1

[5] = tested on: rats; assay: Sedative effect (loss of the righting reflex) in rats; details: 10 rats; dose of 0.5 mg/kg
Protocol: as §2
A dose of 0.5 mg/kg of 4-(2,6-dimethylbenzyl) imidazole was injected into 10 rats. This dose induced loss of the righting reflex for 1 h.

[6] = tested on: horses and cattle; assay: Sedative and analgesic effect of detomidine in horses and cattle; details: i.m. or i.v.
Text: This invention relates to the preparation of 2-[2-(1,4-benzodioxanyl)]-2-imidazoline, and to its use. Detomidine, which has the formula [drawing 1] is a known compound with sedative and analgesic effect in animals. The potency and the duration of the effect can be regulated by the dosage. The compound is very potent; dosages as small as […] given by injection provide a clinical response. Detomidine is used in veterinary medicine especially in the handling of horses and cattle (pharmacological restraint). The animal is sedated before investigation, treatment and difficult medical operations. Even small surgical operations cannot be carried out without the use of a sedative agent.
The analgesic effect is dose dependent. […] Table 1: The effect of detomidine in horses and cattle. Dosage i.m. or i.v.

SMILES: c1ccc2c(c1)OCC(C1=NCCN1)O2 (stereo not drawn) [compound (I), 2-[2-(1,4-benzodioxanyl)]-imidazoline]
- awakening effect [1]: stable
- side-effects [1]: No side-effects were observed
- counteraction of the sedative effect of 4-(2,6-dimethylbenzyl)imidazole [2]: fully counteract
- time to counteract the sedative effect of 4-(2,6-dimethylbenzyl)imidazole after the administration of compound (I) [2]: 1 to 5 min
- awakening effect [3]: stable
- side-effects [3]: No side-effects were observed
- awakening effect [4]: stable
- side-effects [4]: No side-effects were observed

SMILES: Cc1cccc(C)c1Cc1c[nH]cn1 [4-(2,6-dimethylbenzyl) imidazole, 4-(2,6-dimethylbenzyl)imidazole]
- duration of loss of the righting reflex [5]: 1 h

SMILES: Cc1cccc(Cc2c[nH]cn2)c1C [detomidine, Detomidine]
- Delay before the effect begins ([6]; dose 20-40 µg/kg): 3 to 5 min
- Effect ([6]; dose 20-40 µg/kg): easy to handle; short effect
- Other effects ([6]; dose 20-40 µg/kg): slight stagger-ing
- Delay before the effect begins ([6]; dose 40-80 µg/kg): 2 to 5 min
- Effect ([6]; dose 40-80 µg/kg): strong effect
- Other effects ([6]; dose 40-80 µg/kg): stagger-ing, sweating pilo-erection, muscular tremor
- Delay before the effect begins ([6]; dose 80-150 µg/kg): 1 to 5 min
- Duration of the effect ([6]; dose 80-150 µg/kg): 2 to 6 h
- Other effects ([6]; dose 80-150 µg/kg): Strong stagger-ing, pilo-erection, sweating, diuresis

— patent EP0138358A1, “The preparation and use of 2-[2-(1,4-benzodioxanyl)]-2-imidazoline in therapy” (Farmos-Yhtyma Oy, priority 1983, dated 1985)
